Results on two compounds are retold here after patent US20140288117A1, “USE OF CYSTEAMINE IN TREATING PARKINSON'S DISEASE” (Omega Bio-Pharma (I.P. 2) Ltd, priority 2010, published 2014).

Data set [1] deals with TH-immunoresponsive (TH-IR) neurons in the substantia nigra of MPTP-treated mice. In words: Tyrosine hydroxylase immunohistochemistry: number of TH-IR neurons in substantia nigra. The format is in vivo. Conditions: mean±SD. Here is the method:
(§1) C57/BL mice weighted 20-22 g were used. […] The control group was injected with 0.9% saline.
Twenty-four hours later the last injection, mice were anesthetized with chloral hydrate (100 mg/kg). The mice were subjected to thoracotomy and perfusion with ice-cold 0.9% sodium chloride 50 ml, then with 4% paraformaldehyde (PFA) 100 ml in 0.01 M PBS through the left ventricular. After fixation, the brain was post-fixed and then cryoprotected in 30% sucrose for 24 h. The brains were sectioned through the substantia nigra (SN) coronally at 30 um thickness on a cryostat (Leica CM1900, Nussloch, Germany). Sections were collected in 0.01 M PBS and processed free floating. The free floating sections were washed 3 times in Tris-buffered saline (TBS), incubated with H2O2 (3%) for 30 min and blocked with 5% normal goat serum (NGS), 0.2% Triton X-100 in TBS. Sections were incubated for 24 h with primary rabbit anti-TH monoclonal antibody (1:10000) (Watanabe et al., “Protective effects of M, Matsubara, Imai Y, Araki T. neuronal nitric oxide synthase inhibitor in mouse brain against MPTP neurotoxicity: an immunohistological study,” Eur Neuropsychopharmacol. 14:93-104 (2004)). Sections were washed in PBS and incubated for 2 hr at room temperature in secondary antibodies: biotinylated goat anti-rabbit (1:500) diluted in blocking buffer. The sections were incubated for 2 hr at room temperature in horseradish peroxidase labeled avidin work […] solution (1:500). TH immunoreactivity was visualized in SN after incubation in DAB and Nickel sulfate salt for 5-10 min. Sections were mounted on slides, dried, dehydrated in graded ethanol, cleared in xylene, and mounted with DPX mounting medium and coverslip. To test the specificity of the immunostaining, control sections were processed in an identical manner but with the primary antibody omitted. After TH-staining, the image of the sections from the substantia nigra were digitalized with NIS-Elements imaging software (Nikon). The number of neurons was measured in the bilateral substantia nigra.

In data set [2] the test system is striatal dopamine (DA) concentration. In words: Assay of striatal dopamine (DA) by HPLC. The format is in vivo, mice. Conditions: mean±SD. As to the method: as §1
Samples were processed blindly to the treatment conditions for HPLC analysis with electrochemical detector (ECD) using the method by Beyer (Bayer, et al., 2002). Bilaterally corpus striatum tissues were sonicated in 1 ml of pre-colded 0.4 N HClO4. The resulting homogenates were centrifuged twice for 12 min at 12000×g at 4° C. Mobile phase consisting of 0.035 mol/L anhydrous citric acid, 0.09 mol/L without Water-sodium acetate, 0.23 mmol/L sodium alkane sulfonate, 0.13 mmol/L EDTA, 10% methanol (pH4.7). Electrochemical conditions for the experiment were +0.50V. Separation was carried out at a flow rate of 1.0 ml/min. Samples (20 μl) were automatic injected and were quantified by comparison of the area under the curve (AUC) against reference standards. The concentrations of DA were expressed as ng/mg protein of the brain tissue. Protein content was determined in tissue supernatants by the method of Lowry using bovine serum albumin as a standard (Lowry et al., “Protein measurement with the Folin phenol reagent,” J Biol Chem. 193:265-275 (1951)).

Data set [3] relates to glutathione (GSH) levels in the SNpc. In words: Total glutathione (GSH) level in SNpc using glutathione reductase. The note with it: mean±SD. The format is in vivo, mice. Here is the method:
as §1
(§2) The formation of thiobarbituric acid reactive species (TBARS) during an acid-heating reaction was determined by the absorbance at 532 nm. The rate of lipid peroxidation was expressed as nmol/mg protein. SOD activity was detected based on its ability to inhibit the superoxide anion free radical of O^2− generated by the xanthine/xanthine oxidase system. The absorbance at 550 nm was monitored and SOD levels were expressed as U/mg protein. The total glutathione (reduced and oxidized form of glutathione) was determined using glutathione reductase. Absorbance was measured at 412 nm using microplate reader. The standard curve was obtained from absorbance of the diluted commercial GSH that was incubated in the mixture as in samples. Results were reported as nmol TNB/mg protein.

Data set [4] has as its system brain-derived neurotrophic factor (BDNF). The experiment in a line: BDNF concentration in substantia nigra by ABC-ELISA. Conditions: for BDNF concentration in substantia nigra: mean±SD. As to the method:
C57/BL mice weighted 20-22 g were used. Mice were treated with cysteamine and/or induced by MPTP fresh preparations according to the group assignments. Group assignments (n=8/group) were as follows: (1) saline (control) group, (2) MPTP alone (see below), (3) cysteamine (CS) 20 mg/kg/d alone for two weeks, (4) CS 75 mg/kg/d alone for two weeks, (5) CS 20 mg/kg/d for total 14 days and MPTP was given from day 5 to 9, (6) CS 75 mg/kg/d for total 14 days and MPTP was given from day 5 to 9, (7) simultaneous administration of MPTP and CS 20 mg/kg/d for 5 days followed by CS for additional 9 days, (8) simultaneous administration of MPTP and CS 75 mg/kg/d for 5 days followed by CS for additional 9 days. The control group was injected with 0.9% saline. MPTP (20 mg/kg) was intraperitoneally (i.p.) injected into the mice twice daily at an interval of 12 hrs for the initial 2 days and once per day on day 3-5 (Tremblay et al., “Neuroprotective effects of cystamine in aged parkinsonian mice,” Neurobiol Aging. 27:862-870 (2006)). CS (20 mg/kg/d and 75 mg/kg/day were injected alone for 14 days.
After treatment for 14 days, the animals were sacrificed by decapitation. Tissues were quickly removed from the brain on a Petri dish placed on ice using laboratory microscope (Chan et al., “Development of a high resolution three-dimensional surgical atlas of the murine head for strains 129S1/SvImJ and C57Bl/6J using magnetic resonance imaging and micro-computed tomography,” Neuroscience. 144:604-615 (2007)). Bilateral corpus striatum stored at −80° C. until used for HPLC analysis. Bilateral substantia nigra were immediately homogenized using an Ultrasonic Cell Disruptor (Biologics, Model 150 V/T), and which were centrifuged. The supernatant was used for the estimation of various enzyme activities.
The concentration of BDNF was measured by an ABC-ELISA method, according to the manufacturer's protocol (Beyotime Institute of Biotechnology). […] OD value and BDNF concentration are proportional to the standard curve obtained the standard BDNF concentrations. Data are represented as pg/mg protein.
Background: ELISA stands for enzyme-linked immunosorbent assay.

Data set [5] deals with malondialdehyde (MDA). In words: Malondialdehyde (MDA) / TBARS lipid peroxidation in substantia nigra. The format is in vivo, mice. Conditions: n = 8. Here is the method: as §1, §2
The subject of data set [6] is reactive oxygen species (ROS). In words: ROS level in substantia nigra cells by DCDHF-DA fluorescence. It counts as in vivo, mice. The note with it: n = 8. Here is the method: as §1
The ROS level was measured using 2′,7′-dichlorodihydrofluorescein diacetate (DCDHF-DA). DCDHF-DA which is cell-permeable and non-fluorescent, and, in the presence of ROS it is oxidized inside cells and transformed into a fluorescent compound, 2′,7′-dichlorofluorescein (DCDF), which remains trapped within the cell. To measure the ROS level in substantia nigra, isolated cells (10^5/ml) were incubated with 50 μM DCDHF-DA for 40 min at 37° C. and washed twice in PBS. The fluorescence was monitored in microplate reader (Liu, et al., 2009). For each sample, 10,000 cells were acquired. Data were expressed as an average of fluorescence intensity of analyzed cell population (mean fluorescence intensity±SD).

In data set [7] the test system is superoxide dismutase (SOD). The experiment in a line: SOD activity in substantia nigra (xanthine/xanthine oxidase system). It counts as in vivo, mice. The note with it: n = 8. Here is the method: as §1, §2
Setting [8] is: C20 mg alone (cysteamine 20 mg/kg/d, no MPTP).
[9] abbreviates: C75 mg alone (cysteamine 75 mg/kg/d, no MPTP).

For `CN1CC=C(c2ccccc2)CC1.Cl` [MPTP, 1-methyl-4-phenyl-1,2,3,6-tetrahydropyridine hydrochloride], the “number of TH-IR nigral neurons” value in data set [1] (MPTP alone (20 mg/kg i.p., 5 days), control 295.65±47.47) was 166.65±58.15. The “striatal DA concentration” value in data set [2] (MPTP alone, control 57.62±12.70) came to 26.38±6.47 ng/mg protein. Besides, the “level of GSH in the SNpc” value in data set [3] (MPTP alone, control 3.52±1.44) was 0.55±0.36 nmol TNB/mg protein. Also, the “BDNF concentration in substantia nigra” value in data set [4] (MPTP alone, control 78.34±16.09) was found to be 39.55±7.82 pg/mg protein. The compound further registered an MDA in data set [5] (MPTP alone, substantia nigra, control 7.89 ± 0.65) of 10.84 ± 2.65 nmol/mg. Further, the ROS in data set [6] (MPTP alone, substantia nigra, control 13010 ± 261) is 20207 ± 203 MFI. In data set [7] (MPTP alone, substantia nigra, control 52.55 ± 13.35), this compound yielded an SOD of 57.73 ± 9.57 U/mg.

With `NCCS` [cysteamine], the “number of TH-IR nigral neurons” value in data set [1] (cysteamine 20 mg/kg/d 4 days prior to and along with MPTP (CS20 mg/kg/d+MPTP)) is listed as 262.45±32.75; in data set [1] (cysteamine 75 mg/kg/d alone, no MPTP) it was 271.05±44.93; in data set [1] (cysteamine 75 mg/kg/d pretreatment + MPTP (CS75 mg/kg/d+MPTP)), 172.10±42.69; in data set [1] (simultaneous treatment MPTP+CS20 mg/kg/d), 179.5±68.11; in data set [1] (simultaneous treatment MPTP+CS75 mg/kg/d), 174.05±45.78. Besides, the “striatal DA concentration” value was determined as 47.96±10.57 ng/mg protein in data set [2] (cysteamine 20 mg/kg/d 4 days before and along with MPTP); 25.65±7.71 ng/mg protein in data set [2] (cysteamine 75 mg/kg/d pretreatment + MPTP); 32.22±4.71 ng/mg protein in data set [2] (cysteamine 75 mg/kg/day alone, no MPTP); 36.27±16.42 ng/mg protein in data set [2] (simultaneous treatment cysteamine 20 mg/kg/d during MPTP); 25.08±8.10 ng/mg protein in data set [2] (simultaneous treatment cysteamine 75 mg/kg/day during MPTP). Moreover, the “level of GSH in the SNpc” value in data set [3] (pretreatment with low dose cysteamine (20 mg/kg/d) + MPTP) was 3.16±1.28 nmol TNB/mg protein. Besides, the “BDNF concentration in substantia nigra” value worked out at 55.43±12.15 pg/mg protein in data set [4] (high dose cysteamine (75 mg/kg/d) + MPTP); 74.22±7.79 pg/mg protein in data set [4] (low dose cysteamine (20 mg/kg/d) + MPTP); 103.36±30.48 pg/mg protein in data set [4] (low dose cysteamine (20 mg/kg/d) alone, no MPTP). The “reversal of MPTP-induced decrease of BDNF” value in data set [4] (simultaneous administration of cysteamine (20 or 75 mg/kg/d) with MPTP, both P>0.05) was “did not reverse the decrease of BDNF by MPTP”. Moreover, the MDA in data set [5] (C20 mg + MPTP (pretreatment)) was 8.25 ± 0.90 nmol/mg; in data set [5] (setting [8]), 8.82 ± 2.44 nmol/mg; in data set [5] (C75 mg + MPTP (pretreatment)), 8.56 ± 1.08 nmol/mg; in data set [5] (setting [9]), 8.90 ± 2.14 nmol/mg; in data set [5] (MPTP + C20 mg (simultaneous)), 9.86 ± 0.91 nmol/mg; in data set [5] (MPTP + C75 mg (simultaneous)), 9.51 ± 0.57 nmol/mg. Also, the ROS amounted to 17411 ± 589 MFI in data set [6] (C20 mg + MPTP (pretreatment)); 17460 ± 779 MFI in data set [6] (setting [8]); 17411 ± 362 MFI in data set [6] (C75 mg + MPTP (pretreatment)); 17980 ± 419 MFI in data set [6] (setting [9]); 19539 ± 431 MFI in data set [6] (MPTP + C20 mg (simultaneous)); 21976 ± 489 MFI in data set [6] (MPTP + C75 mg (simultaneous)). Also, the SOD stood at 62.11 ± 4.74 U/mg in data set [7] (C20 mg + MPTP (pretreatment)); 58.88 ± 17.66 U/mg in data set [7] (setting [8]); 58.53 ± 5.82 U/mg in data set [7] (C75 mg + MPTP (pretreatment)); 59.13 ± 10.66 U/mg in data set [7] (setting [9]); 66.77 ± 4.64 U/mg in data set [7] (MPTP + C20 mg (simultaneous)); 59.58 ± 2.24 U/mg in data set [7] (MPTP + C75 mg (simultaneous)).
